Measurements from US5760241A, “Thiol derivatives with metallopeptidase inhibitory activity” (priority 1996, dated 1998).

Columns and labels:
[1] = tested on: NEP (SHR kidneys); test: Ex vivo NEP-inhibitory activity in kidneys of treated SHR; parameters: species or system spontaneously hypertensive rats (SHR); conditions: i.v. 0.64 μmoles/kg, 5 minutes
Protocol: The ex vivo ACE/NEP-inhibitory activity of the compounds of formula I, in particular, was evaluated by considering the enzymatic activity in tissue homogenates (lung and kidney for the ACE- and NEP-inhibitory activity, respectively) from spontaneously hypertensive rats (SHR), treated with the tested compounds by intravenous or oral route.
(§1) a) NEP-inhibitory activity
The ex vivo NEP-inhibitory activity was evaluated according to the procedure reported in the literature by M. Orlowsky et al., in Biochemistry 1981, 20, 4942-4950.
The inhibitory activity of the compounds of formula I was evaluated in kidneys of spontaneously hypertensive rats (SHR), 5 minutes after i.v. injection (0.6, 0.64 and 21 μmoles/kg) and 30 minutes, 60 minutes and 4 hours after oral administration (30 μmoles/kg) of the tested compounds.
After the removal of the kidneys from SHR, the renal tissue was homogenized and incubated for 15 minutes at 37° C. in the presence of Glutaryl-Ala-Ala-Phe-2-naphthylamide (GAAP), as a substrate, and aminopeptidase M at pH 7.6.
The reaction was stopped by adding an aqueous solution at 10% of trichloroacetic acid.
The released 2-naphthylamine was determined by adding fast garnet dye (2 ml).
Enzyme reaction rates were determined by measuring the increase in the optical density at 524 nm (OD524) with respect to a standard obtained with 2-naphthylamine complexed with fast garnet.
The NEP-inhibitory activity of the tested compounds was expressed as percentage of NEP-inhibition in SHR kidneys.
As an example, the percentages of basal enzymatic activity obtained in the ex vivo tests after the administration of compounds 29 and 41, as representative compounds of formula I, and of the comparison compounds R-1, R-2, R-3 and R-4 are reported in the following table 2.

[2] = target: T1, NEP (membranes from rat kidney cortex) (Rattus norvegicus, UniProt P07861); test: In vitro NEP-inhibitory activity in rat kidney cortex membranes ([3H][Leu5]-enkephaline substrate); format: biochemical, male Sprague-Dawley rats; conditions: 20 minutes at 30° C.; [3H][Leu5]-enkephaline 15 nM
T1 construct: from tissue; host or cells: kidney cortex membranes of male Sprague-Dawley rats
T1 sequence (P07861 1-750): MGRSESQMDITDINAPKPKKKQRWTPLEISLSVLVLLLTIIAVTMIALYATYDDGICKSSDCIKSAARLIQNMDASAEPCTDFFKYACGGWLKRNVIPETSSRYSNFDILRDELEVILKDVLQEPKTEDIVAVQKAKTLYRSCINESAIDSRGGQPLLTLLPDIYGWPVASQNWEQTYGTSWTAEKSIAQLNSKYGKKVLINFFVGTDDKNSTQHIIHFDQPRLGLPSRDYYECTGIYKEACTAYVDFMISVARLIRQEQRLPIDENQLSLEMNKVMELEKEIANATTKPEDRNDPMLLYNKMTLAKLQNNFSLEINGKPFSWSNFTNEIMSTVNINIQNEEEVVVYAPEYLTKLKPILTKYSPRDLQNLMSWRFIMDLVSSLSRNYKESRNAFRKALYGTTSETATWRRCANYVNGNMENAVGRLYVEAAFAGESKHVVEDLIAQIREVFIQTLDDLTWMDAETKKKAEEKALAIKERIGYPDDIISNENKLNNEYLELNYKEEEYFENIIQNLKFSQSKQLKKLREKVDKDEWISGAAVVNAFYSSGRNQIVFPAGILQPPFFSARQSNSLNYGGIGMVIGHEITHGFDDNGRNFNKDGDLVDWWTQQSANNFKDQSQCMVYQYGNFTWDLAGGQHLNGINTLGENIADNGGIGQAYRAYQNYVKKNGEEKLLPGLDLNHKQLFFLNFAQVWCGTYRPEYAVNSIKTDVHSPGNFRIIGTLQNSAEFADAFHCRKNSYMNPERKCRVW
Protocol: as §1
The NEP-inhibitory activity was evaluated in membranes from rat kidney cortex prepared according to the procedure described by T. Maeda et al. in Biochim. Biophys. Acta 1983, 731(1), 115-120.
By working at 0°-4° C., kidneys were removed from male Sprague-Dawley rats weighing approximately 300 g.
Cortex was carefully dissected, finely minced and suspended in a homogenization buffer (10 mM sodium phosphate pH 7.4 containing 1 mM MgCl2, 30 mM NaCl, 0.02% NaN3) 1:15 weight/volume.
The tissue was then homogenized for 30 seconds using an Ultra-Turrax homogenizer.
Approximately 10 ml of homogenate were layered over 10 ml of sucrose (41% weight/volume) and centrifuged at 31200 rpm for 30 minutes at 4° C. in a fixed angle rotor. The membranes were collected from the buffer/sucrose interface, washed twice with 50 mM TRIS/HCl buffer (pH 7.4) and resuspended into the same buffer for storage.
The membranes were stored in small aliquots at -80° C. until use.
The NEP-inhibitory activity was evaluated according to the method described by C. Llorens et al., in Eur. J. Pharmacol., 69, (1981), 113-116, as reported hereinafter.
Aliquots of the membrane suspension prepared as above described (concentration 5 μg/ml of proteins) were preincubated in the presence of an aminopeptidase inhibitory (Bestatin--1 mM) for 10 minutes at 30° C.
[^3 H][Leu^5 ]-enkephaline (15 nM) and buffer TRIS/HCl pH 7.4 (50 mM) were added in order to obtain a final volume of 100 μl.
Incubation (20 minutes at 30° C.) was stopped by adding HCl 0.1M (100 μl).
The formation of the metabolite [^3 H]Tyr-Gly-Gly was quantified by chromatography on polystyrene columns (Porapak Q).

IC50 [2]: 5 nM
SMILES: O=C(N[C@@H](Cc1ccc(-c2ccccc2)cc1)C(=O)O)C(CS)Cc1ccccc1 (some centres unmarked) [compound 41]
NEP-inhibition (kidneys), 5 minutes [1]: 20%
